From patent EP0291007A1, “Rhodanine derivative, process for preparing the same and pharmaceutical composition containing the same” (KAKEN PHARMACEUTICAL CO., LTD., priority 1987, dated 1988) come the findings set out here.

Marks after values point to notes of the source that are not given here.

The test system of series [1] is accumulation of sorbitol in nervous tissues. Description: Inhibiting activity of the accumulation of sorbitol in nervous tissues of streptozotocin-diabetic rats. It is filed as in vivo, SD male rats. The note with it: single dose 48 h after streptozotocin, sciatic nerve sorbitol 5 hours after administration, mean ± spread. How it is done:
After preliminary breeding SD male rats (6 weeks old) in this laboratory for 5 days, streptozotocin (made by Sigma Chemical Company) was administered intravenously (45 mg/kg body weight) to the rats to destroy β cells of Langerhans' islets in pancreas. Thus, rats suffering from diabetes were obtained.
After 48 hours from the administration of streptozotocin, the rhodanine derivative suspended in a 5 % aqueous solution of gum arabic was administered orally (100 mg/kg body weight or 25 mg/kg body weight) to the rats suffering from diabetes.
On the other hand, a 5 % aqueous solution of gum arabic having no rhodanine derivative was administered orally (5 mℓ/kg body weight) to the rats (a control group).
After 5 hours from the administration, the rats were sacrificed by the decapitation and bled to death. Immidiately, the sciatic nervous tissues of the rats were excised and frozen with dry ice. The excised sciatic nervous tissues were stored at -70°C until the sorbitol amount was measured.
After the wet weights of nervous tissues were measured, the tissues were homogenized in 1.0 mℓ of distilled water by using a homogenizer, to which 0.2 mℓ of a 4.5 % aqueous solution of barium hydroxide and 0.2 mℓ of a 5 % aqueous solution of zinc sulfate were added. The mixture was centrifuged for 10 minutes at 3,000 rpm to remove a precipitate. Ion exchange resins "Dowex 50 W" (Dow Chemical Co.) and "Duolite A-4" (Sumitomo Chemical Company, Limited.) purchased were added in small amounts to the obtained supernatant to desalt, which was recentrifuged to obtain a supernatant. To 0.5 mℓ of the extract of sorbitol were added 1.0 mt of a 50 mM glycine-sodium hydroxide buffer solution (pH 9.4) containing 0.2 mM nicotinamide adenine dinucleotide (NAD) and 50 µℓ of an enzyme solution containing 83 µg of sorbitol dehydrogenase (commercially available from BOEHRINGER MANNHEIM CORPORATION), and the mixture was reacted at room temperature for one hour. The amount of NADH formed by oxidation of sorbitol was measured by using a spectrofluorimeter and a sorbitol concentration in the extracts was measured. From the obtained results, sorbitol concentrations in nervous tissues (n mole/mg wet weight) were calculated.
A difference between the sorbitol content of the normal rat (0.12 ± 0.01 n mole/mg) and that of the rat suffering from diabetes (0.81 ± 0.06 n mole/mg) was defined as an amount of sorbitol accumulated in the tissues due to diabetes (hereinafter referred to as "sorbitol amount due to diabetes"). Also, a difference between the sorbitol content of the rat suffering from diabetes (0.81 ± 0.06 n moles/mg) and the sorbitol content of the rat suffering from diabetes which was administered the rhodanine derivative was defined as a lowering of the amount of sorbitol due to administration of the rhodanine derivative (hereinafter referred to as "lowering of sorbitol").
A lowering percentage (%) was defined as a percentage of the lowering of sorbitol to the sorbitol amount due to diabetes. The lowering percentages of the rhodanine derivatives (Compound Nos. 1-11) are shown in Table 3 (administered 100 mg/kg body weight) and Table 4 (administered 25 mg/kg body weight) with the number of rats suffering from diabetes.

Series [2] has as its system rats suffering from diabetes. Put plainly: Improving activity of the nerve conduction velocity in diabetic rats (tail nerve, method of Miyoshi). It is filed as in vivo. To be noted: 100 mg/kg body weight once daily for 2 weeks, control group 24.5 ± 1.2, normal rat 38.4 ± 2.2. How it is done:
Rats suffering from diabetes for the test were prepared in the same manner as in Example 13.
From the day after the administration of streptozotocin, each of Compound Nos. 1-11 suspended in a 5 % aqueous solution of gum arabic was administrated to the rats in a dosage of 100 mg/kg body weight once daily for 2 weeks.
As the control groups, a 5 % aqueous solution of gum aratic having no rhodanine derivative was administered (5 mℓ/kg body weight) in the same manner as above to the rats.
Two weeks later, the conduction velocity of nerve of the rats was measured in accordance with the method of Miyoshi [Fukuoka Medical Jounal, 62(7), 588 to 603(1971)]. In this test, the nerves of the rats' tails were used as materials studied.
The rats were anesthetized with pentobarbital (30 to 45 mg/kg body weight, intraperitoneal administration), and then the conduction velocities of nerves were measured in a constant-temperature box having a temperature of 40°C.
The nerve of rat's tail was pricked with needle electrodes at a portion of about 1 cm from the anus (the first stimulation point) and at a portion of about 5 cm in a distal direction from the first stimulation point (the second stimulation point). Further, the segmental muscle of the rat's tail was pricked with a coaxial needle electrode at a portion of about 5 cm in a distol direction from the second stimulation point. The longitudinal nerve trunk of the rat's tail was stimulated at the first stimulation point and the second stimulation point to record action potentials of the provoked muscle.
The conduction velocity of nerve was calculated as follows: [formula]
Also, with respect to the normal rats administered with a 5 % aqueous solution of gum arabic, the conduction velocity of nerve was measured in the same manner as above.

Series [3] has as its system rats suffering from diabetes. Put plainly: Inhibiting activity of the progress of cataract in diabetic rats (lens opacity score by slit lamp). It is filed as in vivo. The note with it: 100 mg/kg body weight orally daily for 5 weeks; average lens score (0-4) of both eyes; control group 1.46 ± 0.12, normal rats 0. The protocol:
Rats suffering from diabetes for the test were produced in the same manner as in Example 13.
From the day after the administration of streptozotocin, each of Compound Nos. 1-11 suspended in a 5 % aqueous solution of gum arabic was administered orally 100 mg/kg body weight daily for 5 weeks to the rats. As the control group, a 5 % aqueous solution of gum arabic having no rhodanine derivative was administered (5 mℓ/kg body weight) to the rats in the same manner as above.
After administering streptozotocin, lenses of the rats were observed by using a slit lump (commercially available from KOWA Co., Ltd. under a trade name "Kowa SL-2") every second or third day for 5 weeks, sufficiently keeping the lenses mydriasis with a mydriatic (commercially available from Santen Pharmaceutical Co., Ltd. under the trade name "MYDRIN-P".
The opaqueness of the lenses was estimated according to the following criteria. Score 0: There was no change in the lenses. […] Score 3: Opacity was observed over the whole of lens' surface and the fundus oculi was not seen as if projected through the lens. Score 4: The nucleus lentis became opaque.
Also, with respect to the normal rats administered with a 5 % aqueous solution of gum arabic, the opaqueness were estimated in the same manner as above.

Series [4] deals with accumulation of galactitol in red blood cells. Put plainly: Inhibiting activity of the accumulation of galactitol in red blood cells of galactose-fed dogs. It is filed as in vivo, beagle dogs. The note with it: 10 mg/kg body weight orally once daily for 3 days; blood 10 hours after galactose 15 g/kg; control group 125 ± 10. The protocol: Each of Compound Nos. 1-11 was administered orally in a dosage of 10 mg/kg body weight once daily for 3 days with a capsule (administration time: 9 a.m. to 9:30 a.m.) to a male or female beagle dogs (body weight: from 8 to 12 kg). As the control group, the dogs were administered with vacant capsules in the same manner as above. Dog foods containing galactose in an amount of 15 g/kg body weight were given to the dogs immediately after the final administration of the capsule. The dogs completely had eaten the dog foods for 5 to 10 minutes. The blood was collected from the cephalic vein of the dog using heparine sodium after 10 hours from the administration of galactose. The collected blood was centrifuged to give red blood cells. The obtained red blood cells were washed twice with a cold physiological saline solution and were hemolysed in distilled water having an equal volume to the red blood cells.
After removing protein from the obtained solution, the resulting solution was treated with ion exchange resins, "Dowex 50 W" and "Duolite A-4", desalted and lyophilized. After subjecting to the pre-treatment of galactitol with trimethyl silyl ether (TMS), the amount of galactitol accumulated in the red blood cells was measured by a gas chromatography.

A further series in a line: Acute toxicity in mice. It is filed as in vivo. To be noted: mouse, in vivo; oral, mice observed for 2 weeks; read-out: LD₅₀ (oral). An excerpt: (§1) The acute toxicity in mice was examined by using the rhodanine derivatives of compound Nos. 1, 2, 5, 7 and 10.
The test system of another series is male ddY mice. Put plainly: Acute toxicity in mice. It is filed as in vivo. The note with it: oral, up to a dose of 2,000 mg/kg body weight, observed for 2 weeks.
Excerpt: as §1

For `CCC(CC)C1SC(=S)N(CC(=O)O)C1=O` (stereo not shown) [Compound No. 1, 3-Carboxymethyl-5-(1-ethylpropyl)rhodanine], the “Lowering percentage (%)” value was 19.8 ± 3.2 % in series [1] (25 mg/kg body weight orally) and 51.5 ± 4.8*^3% in series [1] (100 mg/kg body weight orally). The “Conduction velocity of nerve (m/sec)” value in series [2] came out at 36.2 ± 3.4 m/sec. The Opaqueness in series [3] is 0.98 ± 0.06. For the same molecule, the “Amount of galactitol in red blood cells (ng/g hemoglobin)” value (shortened to “Amount of galactitol in red blood cells”) in series [4] amounted to 82 ± 6 ng/g hemoglobin. Further, in “Acute toxicity in mice”, the LD50 at 336 h is more than 2000 mg/kg. Also, the dead mice result in the series on male ddY mice was “no dead mice were observed”.
`CC(C)C(C)C1SC(=S)N(CC(=O)O)C1=O` (stereo not shown) [Compound No. 2, 3-Carboxymethyl-5-(1,2-dimethylpropyl)-rhodanine]: the “Lowering percentage (%)” value in series [1] (25 mg/kg body weight orally) is on record as 36.5 ± 4.7 %; in series [1] (100 mg/kg body weight orally) it was 68.2 ± 10.6*^3%. The “Conduction velocity of nerve (m/sec)” value in series [2] was determined as 36.6 ± 2.7 m/sec. The molecule also displayed an Opaqueness in series [3] of 0.61 ± 0.07. In addition, in series [4], the “Amount of galactitol in red blood cells” value worked out at 66 ± 5 ng/g hemoglobin. In addition, the LD50 at 336 h in “Acute toxicity in mice” is more than 2000 mg/kg. In addition, the dead mice entry in the series on male ddY mice is on record as “no dead mice were observed”.
For the molecule `CCC(CCCl)C1SC(=S)N(CC(=O)O)C1=O` (stereo not shown) [Compound No. 3, 3-Carboxymethyl-5-(1-ethyl-3-chloropropyl)-rhodanine], the “Lowering percentage (%)” value in series [1] (25 mg/kg body weight orally) is 34.0 ± 6.2 %; in series [1] (100 mg/kg body weight orally), 62.4 ± 9.4*^3%. Moreover, the “Conduction velocity of nerve (m/sec)” value in series [2] is on record as 34.2 ± 1.8 m/sec. The molecule also displayed an Opaqueness in series [3] of 0.55 ± 0.06. For the same molecule, the “Amount of galactitol in red blood cells” value in series [4] stood at 57 ± 12 ng/g hemoglobin.
In the same order, the values of `CC(CCCCl)C1SC(=S)N(CC(=O)O)C1=O` (stereo not shown) [Compound No. 4, 3-Carboxymethyl-5-(1-methyl-4-chlorobutyl)-rhodanine] are 32.2 ± 4.4 %, 60.1 ± 7.3*^3%, 37.0 ± 3.5 m/sec, 0.68 ± 0.09 and 59 ± 6 ng/g hemoglobin.
Consider `CCCC(CC)C1SC(=S)N(CC(=O)O)C1=O` (stereo not shown) [Compound No. 5, 3-Carboxymethyl-5-(1-ethylbutyl)rhodanine], for which the “Lowering percentage (%)” value in series [1] (25 mg/kg body weight orally) is 15.2 ± 2.1 %; in series [1] (100 mg/kg body weight orally), 30.9 ± 8.8*^1%. For the same molecule, the “Conduction velocity of nerve (m/sec)” value in series [2] is recorded as 32.4 ± 2.8 m/sec. In series [3], this molecule displayed an Opaqueness of 0.92 ± 0.10. Further, in series [4], the “Amount of galactitol in red blood cells” value was found to be 94 ± 7 ng/g hemoglobin. The LD50 at 336 h in the series “Acute toxicity in mice” is more than 2000 mg/kg. Moreover, the dead mice entry in the series on male ddY mice is reported as “no dead mice were observed”.
For `CCCC(CCC)C1SC(=S)N(CC(=O)O)C1=O` (stereo not shown) [Compound No. 6, 3-Carboxymethyl-5-(1-propylbutyl)rhodanine], the figures for the “Lowering percentage (%)” value in series [1] (25 mg/kg body weight orally) and in series [1] (100 mg/kg body weight orally) were 16.1 ± 3.2 % and 28.4 ± 7.4*^1%, respectively. Also, in series [2], the “Conduction velocity of nerve (m/sec)” value stood at 33.0 ± 3.1 m/sec. The same molecule returned an Opaqueness in series [3] of 0.90 ± 0.12. For the same molecule, in series [4], the “Amount of galactitol in red blood cells” value is on record as 86 ± 12 ng/g hemoglobin.
In the case of `CC(C)(C)CC1SC(=S)N(CC(=O)O)C1=O` (stereo not shown) [Compound No. 7, 3-Carboxymethyl-5-(2,2-dimethylpropyl)rhodanine], the figures for the “Lowering percentage (%)” value in series [1] (25 mg/kg body weight orally) and in series [1] (100 mg/kg body weight orally) were 52.5 ± 3.4 % and 80.9 ± 5.8*^3%, respectively. Also, the “Conduction velocity of nerve (m/sec)” value in series [2] is reported as 38.5 ± 4.0 m/sec. In series [3], this molecule returned an Opaqueness of 0.32 ± 0.05. Moreover, in series [4], the “Amount of galactitol in red blood cells” value was 48 ± 3 ng/g hemoglobin. Besides, the LD50 at 336 h in “Acute toxicity in mice” was more than 2000 mg/kg. Also, the dead mice result in the series with male ddY mice is recorded as “no dead mice were observed”.
On to `CC(C)CCC1SC(=S)N(CC(=O)O)C1=O` (stereo not shown) [Compound No. 8, 3-Carboxymethyl-5-(3-methylbutyl)rhodanine], for which the “Lowering percentage (%)” value is reported as 12.2 ± 1.8 % in series [1] (25 mg/kg body weight orally) and 23.0 ± 6.2*^1% in series [1] (100 mg/kg body weight orally). The “Conduction velocity of nerve (m/sec)” value in series [2] is 35.2 ± 1.5 m/sec. In series [3], this molecule displayed an Opaqueness of 0.89 ± 0.10. Moreover, the “Amount of galactitol in red blood cells” value in series [4] is recorded as 72 ± 11 ng/g hemoglobin.
In the same order, the values of `CCC(C)CC1SC(=S)N(CC(=O)O)C1=O` (stereo not shown) [Compound No. 9, 3-Carboxymethyl-5-(2-methylbutyl)rhodanine] are 19.0 ± 3.5 %, 49.9 ± 6.9*^2%, 33.6 ± 2.6 m/sec, 0.72 ± 0.11 and 69 ± 10 ng/g hemoglobin.
In the same order, the values of `O=C(O)CN1C(=O)C(CC2CCCCC2)SC1=S` (stereo not shown) [Compound No. 11, 3-Carboxymethyl-5-cyclo-hexylmethylrhodanine] are 13.0 ± 2.9 %, 27.7 ± 1.6*^1%, 31.8 ± 1.3 m/sec, 0.90 ± 0.13 and 87 ± 13 ng/g hemoglobin.
